Results as given in patent publication US6989245B2, “Screening, diagnostic and therapeutic methods relating to RIZ” (The Burnham Institute, priority 2001, dated 2006).

Experiments:
[1] = system: prostate of orchiectomized male mice; assay: prostate growth in orchiectomized male mice treated with testosterone; assay type: in vivo; settings: testosterone 3 mg/kg/day S.C. 7 days
Description: In order to evaluate the response to testosterone, twelve week old male mice were orchiectomized (ORCed) and testicles were wet weighed (Xu et al., Science 279:1922-1925 (1998)). Nine days following ORC, mice were treated during days 9-15 with S.C. injections of testosterone (3 mg/kg/day, Sigma) or vehicle alone (0.1 ml corn oil). On day 16, mice were sacrificed and the prostate and the pars prostate of the urethra (for technical reasons) were removed and wet weighed.
Eight days after orchiectomization, prostates in both wild-type and mutant animals regressed. Injection of testosterone for 7 days stimulated prostate growth in wild-type animals as well as in RIZ1 null animals. Wild-type and RIZ1 null mutant animals had similar ratios of the weight of prostate and urethra to body weight (1.19±0.03 vs. 1.14±0.03; n=10 and 9 mice for +/+ and −/−, respectively; p=0.23). They also had similar ratios of testis weight to body weight (7.7±0.4 vs. 7.4±0.4; n=14 for both genotypes; p=0.58).

RIZ1 HMT activity [2] = assay: HMT activity of RIZ1 immunoprecipitated from E2 treated MCF-7 cells; assay type: cell-based, human; settings: RIZ1 immunoprecipitates
Description: (§1) Methylation reactions (30-40 μl) contained 20 mM Tris-HCl (pH8.0), 0.2 M NaCl, 0.4 mM EDTA, affinity-purified GST-RIZ1 or immunoprecipitation products, free histones (20-40 μg) purified from acid extraction of human cancer cells (A549 or U2OS), and 3 μl (1.65 μCi and 21 pmole)[methyl-^3H]-adenosyl-methionine (Amersham-Pharmacia). Nuclear extracts were prepared according to standard procedures and used for immunoprecipitation. Antisera used for immunoprecipitation were anti-KG7.1S and preimmune serum as described previously (Buyse et al., Proc. Natl. Acad. Sci. U.S.A. 92:4467-4471 (1995)). Similar HMT activity has also been observed with immunoprecipitates using a different serum (data not shown), 1715, which was described previously (Steele-Perkins et al., Genes Dev. 15:2250-2262 (2001)). Various amount of SAH (Sigma) were added in some methylation reactions.
To help understand this apparent paradox, the estrogen effects on RIZ1 HMT activity were examined. Nuclear extracts from control and E2 treated MCF-7 cells were immunoprecipitated by RIZ1 serum anti-KG7.1S or preimmune serum. As expected, HMT activity (labeling of H3 and H1) was detected in the immunoprecipitates of RIZ1 serum but not preimmune serum (FIG. 7A, lanes 1 and 3). […] Thus, E2 appears to regulate RIZ1 HMT activity in a selective way, inhibiting specifically methylation of H3 but not H1.

[3] = system: progesterone receptor gene expression in luminal epithelial cells of the uterus; assay: E2 regulation of uterine progesterone receptor expression (immunohistochemistry); assay type: in vivo, mice
Source text: For RIZ staining, the RIZ rabbit antiserum KG7.1S (Buyse et al., Proc. Natl. Acad. Sci. U.S.A. 92:4467-4471 (1995)) was used at an optimal dilution of 1/200. For ERα staining the polyclonal rabbit anti-ERα antibody (sc-542 Santa Cruz) was used at a dilution of 1/250, and for PR staining the polyclonal rabbit anti-PR antibody (A0098 DAKO) was used at a dilution of 1/100, essentially as described (Tibbetts et al., Biol. Reprod. 59:1143-1152 (1998)). Tissues were fixed in Bouin's solution and processed by routine methods for embeddement in paraffin and sectioning (5 μm). […]
To investigate E2-mediated increments in proliferation and hyperemia of uteri and changes in the cellular organization of the vaginal epithelium (Xu et al., Science 279:1922-1925 (1998)), 8-week old female RIZ−/− and RIZ+/+mice were ovariectomized (OVXed). […] The mice were then sacrificed at day 18 and the uterine wet weight was measured, and vaginal tissue was collected. […] The thickness of the vaginal epithelium and the cornified layer was photographed and measured as described in FIG. 4 using the Spot 3.2.4. software (Diagnostic Instruments).
The epithelial and stromal compartments of the uterus were then analyzed for E2-induced changes in progesterone receptor expression. […]

uterus of OVXed mice = assay: uterine growth in response to E2 in ovariectomized (OVXed) mice; assay type: in vivo; settings: E2 0.8 ng/g/day S.C. three days
Description: To investigate E2-mediated increments in proliferation and hyperemia of uteri and changes in the cellular organization of the vaginal epithelium (Xu et al., Science 279:1922-1925 (1998)), 8-week old female RIZ−/− and RIZ+/+mice were ovariectomized (OVXed). At day 15-17 following OVX, mice were treated with S.C. injections of E2 (0.8 ng/g/day; Sigma) or with the vehicle (0.1 ml corn oil) alone for three days. The mice were then sacrificed at day 18 and the uterine wet weight was measured, and vaginal tissue was collected. The tissues were processed as above and vaginal specimens were stained with routine H & E and uterine specimens for PR expression. The thickness of the vaginal epithelium and the cornified layer was photographed and measured as described in FIG. 4 using the Spot 3.2.4. software (Diagnostic Instruments).
The RIZ1 mutant mice are deficient in RIZ1, but not RIZ2, and therefore lack specifically any PR-domain related functions of the gene (Steele-Perkins et al., Genes Dev. 15:2250-2262 (2001)). These animals are viable and fertile and show no gross developmental defects (Steele-Perkins et al., supra (2001)). To determine the physiological role of RIZ1 in steroid hormone action, uterine growth in response to E2 was first examined in ovariectomized (OVXed) mice (Lubahn et al., Proc. Natl. Acad. Sci. USA 90:11162-11166 (1993)). Wild-type or heterozygous RIZ1 mutant mice responded to E2 treatment with a 5.3±0.5 and 5.4±0.4 fold increase in uterine wet weight. […] Uterine response to mechanical traumatization (decidual stimulation) is mainly a progesterone receptor-dependent process (Lydon et al., Genes Dev. 9:2266-2278 (1995)). OVXed mice were treated with a high dose of progesterone and a low dose of E2, followed by mechanical stimulation of the left uterine horn of each animal. The unstimulated […] uterine horn served as a control.

[4] = system: histone H1 phosphorylation in MCF7 cells; assay: H1 phosphorylation in MCF7 cells by western blot; assay type: cell-based, human; settings: E2 48 hr
Description: MCF-7 and T47-D breast cancer cells were grown in 15 cm dishes in DMEM with 5% FCS, and 2 mM L-glutamine. Subconfluent cells (4×10^6) were then cultured in DMEM without phenol red, serum or hormones for an additional 3 days, during which media was changed twice daily. Cells were incubated for 24 h with or without hormones (50 nM for E2 and 100 nM for R5020) and infected with an adenovirus vector containing RIZ1 (AdRIZ1; at a concentration of 1×10^10 viral particles/15 cm dish) or the empty vector (AdNull) (He et al., Cancer Res. 58:4238-4244 (1998)). Cells were then grown for an additional 48 h in DMEM without phenol red supplemented with 5% charcoal-treated FCS (Omega Scientific). Cells were harvested and proceeded to immunoprecipitation and immunoblot essentially as described (Buyse et al., Proc. Natl. Acad. Sci. U.S.A. 92:4467-4471 (1995); Liu et al., J. Biol. Chem. 272:2984-2991 (1997)). […]
Because H1 phosphorylation has been linked with transcriptional activation (Bhattacharjee et al., Mol. Cell. Biol. 21:5417-5425 (2001); Dou and Gorovsky, Mol. Cell. 6:225-231 (2000)), it was next asked whether E2 or RIZ1 can enhance H1 phosphorylation. Histones were extracted from MCF7 cells infected with AdRIZ1 or control virus and analyzed by western blot analysis using antibodies that recognize specifically phosphorylated H1.

RIZ1 HMT activity [5] = assay: HMT activity of RIZ1 immunoprecipitates from TPA treated U937 cells; assay type: cell-based, human; settings: 24 hr following TPA treatment
Description: as §1
To further study the contrasting behavior of H1 and H3 methylation, regulation of RIZ1 HMT activity by cell growth was examined, using 12-O-tetradecanoyl-phorbol-13-acetate (TPA) treatment of U937 myeloid leukemic cells as a model system. U937 cells undergo growth arrest and terminal differentiation into monocytes when exposed to TPA. This cell model was selected for study because it has been shown in these cells that RIZ gene expression is only marginally regulated by TPA. […]

RIZ1 methyltransferase = biological target: T1, RIZ1 methyltransferase (Homo sapiens, UniProt Q13029, DUP703-703); assay: in vitro methylation of histones by immunoprecipitated RIZ1; assay type: biochemical; settings: 0.42 μM of 3H-SAM
T1 construct: Enzyme activity of full-length RIZ1 protein from mammalian cells was next assayed; expressed in transfected cells; host or cells: U2OS human osteosarcoma cells infected with AdRIZ1 adenovirus
Description: as §1
In view of RIZ1's role in tumor suppression, it was determined whether S-adenosylhomocysteine (SAH), an analog inhibitor of SAM-dependent methyltransferases whose abnormal accumulation is linked with carcinogenesis, can inhibit RIZ1 enzyme activities. The effect of SAH on the in vitro methylation of histones by immunoprecipitated RIZ1 was tested. A methylation assay was performed in the presence of 0, 0.5 and 5 μM of SAH and 0.42 μM of 3H-SAM.

[6] = biological target: protein methyltransferase (PMT); settings: universal inhibitor of PMT; cited from earlier work

T1 sequence (Q13029 with tags, fused parts or gaps DUP703-703): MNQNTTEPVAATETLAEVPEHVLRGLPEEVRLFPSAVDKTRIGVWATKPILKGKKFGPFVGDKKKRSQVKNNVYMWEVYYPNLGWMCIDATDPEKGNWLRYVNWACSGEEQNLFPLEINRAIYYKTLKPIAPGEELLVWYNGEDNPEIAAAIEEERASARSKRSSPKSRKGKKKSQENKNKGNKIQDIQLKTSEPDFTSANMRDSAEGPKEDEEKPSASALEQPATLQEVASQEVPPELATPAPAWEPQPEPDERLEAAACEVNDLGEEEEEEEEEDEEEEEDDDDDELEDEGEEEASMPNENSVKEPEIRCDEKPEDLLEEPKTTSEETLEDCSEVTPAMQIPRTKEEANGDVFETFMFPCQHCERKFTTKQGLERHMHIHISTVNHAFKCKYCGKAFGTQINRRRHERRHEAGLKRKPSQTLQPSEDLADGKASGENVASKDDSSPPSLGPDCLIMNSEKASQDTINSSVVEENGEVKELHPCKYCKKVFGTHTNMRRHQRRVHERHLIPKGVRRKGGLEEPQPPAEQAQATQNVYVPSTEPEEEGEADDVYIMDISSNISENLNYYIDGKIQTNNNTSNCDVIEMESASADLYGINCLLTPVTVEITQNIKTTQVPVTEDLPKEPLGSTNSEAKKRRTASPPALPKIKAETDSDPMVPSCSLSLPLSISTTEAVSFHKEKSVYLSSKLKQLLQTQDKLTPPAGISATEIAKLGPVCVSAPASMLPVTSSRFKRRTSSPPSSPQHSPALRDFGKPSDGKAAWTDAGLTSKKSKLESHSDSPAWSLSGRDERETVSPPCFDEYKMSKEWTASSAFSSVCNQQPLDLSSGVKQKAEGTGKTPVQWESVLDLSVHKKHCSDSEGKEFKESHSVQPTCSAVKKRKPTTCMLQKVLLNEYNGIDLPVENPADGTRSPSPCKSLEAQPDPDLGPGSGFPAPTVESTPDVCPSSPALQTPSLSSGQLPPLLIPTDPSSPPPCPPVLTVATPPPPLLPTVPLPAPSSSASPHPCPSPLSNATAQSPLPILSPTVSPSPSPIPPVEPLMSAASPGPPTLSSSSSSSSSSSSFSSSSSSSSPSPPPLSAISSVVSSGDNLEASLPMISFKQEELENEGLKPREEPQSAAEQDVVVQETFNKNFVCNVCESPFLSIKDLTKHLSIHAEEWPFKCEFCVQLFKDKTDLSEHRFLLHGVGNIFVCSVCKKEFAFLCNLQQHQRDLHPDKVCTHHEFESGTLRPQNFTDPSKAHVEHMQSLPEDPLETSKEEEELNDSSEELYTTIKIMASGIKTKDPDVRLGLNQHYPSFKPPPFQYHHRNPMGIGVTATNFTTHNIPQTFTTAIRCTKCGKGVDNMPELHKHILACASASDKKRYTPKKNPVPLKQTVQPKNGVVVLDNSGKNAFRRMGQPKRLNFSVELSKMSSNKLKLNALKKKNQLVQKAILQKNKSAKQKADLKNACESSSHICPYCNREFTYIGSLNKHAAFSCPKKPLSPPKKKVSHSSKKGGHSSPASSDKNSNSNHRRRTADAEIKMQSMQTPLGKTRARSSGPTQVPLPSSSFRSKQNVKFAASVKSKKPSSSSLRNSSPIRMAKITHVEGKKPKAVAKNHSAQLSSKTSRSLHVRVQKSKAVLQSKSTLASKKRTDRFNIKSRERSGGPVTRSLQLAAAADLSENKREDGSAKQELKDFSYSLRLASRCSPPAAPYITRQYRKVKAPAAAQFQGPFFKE

Structure (SMILES): C[C@]12CC[C@H]3[C@@H](CCC4=CC(=O)CC[C@@]43C)[C@@H]1CC[C@@H]2O [testosterone]
- ratio of the weight of prostate and urethra to body weight ([1]; RIZ1 null mutant orchiectomized mice, n=9): 1.14±0.03
- ratio of the weight of prostate and urethra to body weight ([1]; wild-type orchiectomized mice, n=10): 1.19±0.03

Structure (SMILES): C[C@]12CC[C@@H]3c4ccc(O)cc4CC[C@H]3[C@@H]1CC[C@@H]2O [E2, estradiol]
- H1 methylation by RIZ1 (RIZ1 HMT activity [2]): maintained or slightly enhanced
- H3 methylation by RIZ1 (RIZ1 HMT activity [2]): decreased
- repression of progesterone receptor gene expression ([3]; in the absence of RIZ1): 2 fold
- repression of progesterone receptor gene expression ([3]; in the presence of RIZ1): ~20 fold
- fold increase in uterine wet weight (uterus of OVXed mice; heterozygous RIZ1 mutant OVXed mice): 5.4±0.4 fold
- fold increase in uterine wet weight (uterus of OVXed mice; homozygous RIZ1 mutant OVXed mice): about 3.7±0.4 fold
- fold increase in uterine wet weight (uterus of OVXed mice; wild-type OVXed mice): 5.3±0.5 fold
- H1 phosphorylation [4]: increased

Structure (SMILES): CCCCCCCCCCCCCC(=O)O[C@@H]1[C@@H](C)[C@@]2(O)[C@@H](C=C(CO)C[C@]3(O)C(=O)C(C)=C[C@@H]23)[C@@H]2C(C)(C)[C@]12OC(C)=O [TPA, 12-O-tetradecanoyl-phorbol-13-acetate]
- H1 methylation by RIZ1 (RIZ1 HMT activity [5]): slightly decreased
- H3 methylation by RIZ1 (RIZ1 HMT activity [5]): increased

Structure (SMILES): Nc1ncnc2c1ncn2[C@@H]1O[C@H](CSCC[C@H](N)C(=O)O)[C@@H](O)[C@H]1O [SAH, S-adenosylhomocysteine]
- Histone methylation by RIZ1 (RIZ1 methyltransferase; 0.5 μM of SAH): partially inhibited
- Histone methylation by RIZ1 (RIZ1 methyltransferase; 5 μM of SAH): completely inhibited
- Ki [6]: 5 to 12 µM
